According to patent US5510255A, “Plant fatty acid synthases” (priority 1993, dated 1996):

Key:
[1] = system: synthase II; conditions: cited from earlier work
[2] = system: T1, synthase I; assay: Cerulenin sensitivity of cellulose phosphate flow-through fraction; assay type: biochemical, S. oleracea; conditions: 0.25 h, 5 μM cerulenin, 15 minutes, room temperature, read-out: reduction of decanoyl-ACP activity
T1 construct: from tissue; host or cells: S. oleracea leaf, cellulose phosphate flow-through
Protocol: (§1) Each enzyme source is incubated with 5 μM cerulenin for 15 minutes at room temperature before being assayed with each of the acyl-ACP substrates. After incubation with cerulenin, the decanoyl-ACP activity is reduced 99% in the cellulose phosphate flow-through fraction and only 69% in the synthase II fraction. The palmitoyl-ACP activity in the synthase II fraction is not inhibited by the cerulenin treatment.

[3] = molecular target: T2, synthase II (Arabidopsis thaliana, UniProt Q9C9P4); assay: Inhibition with cerulenin; assay type: biochemical
T2 sequence (Q9C9P4 104-541): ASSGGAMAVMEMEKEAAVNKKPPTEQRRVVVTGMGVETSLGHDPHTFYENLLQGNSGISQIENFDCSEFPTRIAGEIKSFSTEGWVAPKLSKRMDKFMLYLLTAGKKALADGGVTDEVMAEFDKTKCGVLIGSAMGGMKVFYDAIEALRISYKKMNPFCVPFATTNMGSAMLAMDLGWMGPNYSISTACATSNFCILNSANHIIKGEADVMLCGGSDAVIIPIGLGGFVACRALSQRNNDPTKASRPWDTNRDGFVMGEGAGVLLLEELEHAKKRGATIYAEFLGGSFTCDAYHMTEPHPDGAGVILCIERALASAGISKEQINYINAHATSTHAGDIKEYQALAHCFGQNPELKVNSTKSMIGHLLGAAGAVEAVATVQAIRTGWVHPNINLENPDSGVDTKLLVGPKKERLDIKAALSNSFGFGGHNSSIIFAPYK
Source text: (§2) Other plant synthases may also find applicability by this invention, including synthase III type activities. Differences between synthases I, II, and III are also observed in inhibition with cerulenin. […] In FIG. 1, a time course assay of cerulenin effects on synthase I and synthase II activities is provided.

[4] = molecular target: T3, Synthase I (Arabidopsis thaliana, UniProt P52410); assay: Inhibition with cerulenin; assay type: biochemical
T3 sequence (P52410 47-473): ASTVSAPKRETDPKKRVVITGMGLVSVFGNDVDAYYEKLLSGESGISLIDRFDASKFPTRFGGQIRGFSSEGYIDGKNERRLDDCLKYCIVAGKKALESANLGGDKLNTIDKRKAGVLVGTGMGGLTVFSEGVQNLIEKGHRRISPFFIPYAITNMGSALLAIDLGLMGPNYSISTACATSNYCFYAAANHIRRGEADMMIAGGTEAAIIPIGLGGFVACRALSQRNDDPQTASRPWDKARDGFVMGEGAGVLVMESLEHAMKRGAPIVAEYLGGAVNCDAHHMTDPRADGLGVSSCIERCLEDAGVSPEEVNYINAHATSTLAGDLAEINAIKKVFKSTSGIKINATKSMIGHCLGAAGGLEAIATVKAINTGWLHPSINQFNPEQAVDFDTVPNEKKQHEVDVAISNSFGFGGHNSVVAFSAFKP
Source text: as §2

[5] = molecular target: T4, synthase III (Arabidopsis thaliana, UniProt P49243); assay: Inhibition with cerulenin; assay type: biochemical
T4 sequence (P49243 44-404): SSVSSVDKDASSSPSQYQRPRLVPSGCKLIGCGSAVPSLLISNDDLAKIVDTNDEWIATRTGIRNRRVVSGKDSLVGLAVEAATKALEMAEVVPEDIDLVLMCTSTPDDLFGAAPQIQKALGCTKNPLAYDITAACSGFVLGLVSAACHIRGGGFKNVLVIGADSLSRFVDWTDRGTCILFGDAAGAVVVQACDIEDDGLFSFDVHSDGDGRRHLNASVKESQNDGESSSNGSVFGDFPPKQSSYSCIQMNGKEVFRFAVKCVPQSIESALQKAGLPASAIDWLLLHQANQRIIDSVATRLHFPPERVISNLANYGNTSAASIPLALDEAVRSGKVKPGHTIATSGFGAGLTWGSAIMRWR
Source text: as §2

[6] = molecular target: T5, type-II synthase (Ricinus communis, UniProt Q41134); assay type: biochemical, R. communis
T5 construct: mature plastid protein
T5 sequence (Q41134 117-535): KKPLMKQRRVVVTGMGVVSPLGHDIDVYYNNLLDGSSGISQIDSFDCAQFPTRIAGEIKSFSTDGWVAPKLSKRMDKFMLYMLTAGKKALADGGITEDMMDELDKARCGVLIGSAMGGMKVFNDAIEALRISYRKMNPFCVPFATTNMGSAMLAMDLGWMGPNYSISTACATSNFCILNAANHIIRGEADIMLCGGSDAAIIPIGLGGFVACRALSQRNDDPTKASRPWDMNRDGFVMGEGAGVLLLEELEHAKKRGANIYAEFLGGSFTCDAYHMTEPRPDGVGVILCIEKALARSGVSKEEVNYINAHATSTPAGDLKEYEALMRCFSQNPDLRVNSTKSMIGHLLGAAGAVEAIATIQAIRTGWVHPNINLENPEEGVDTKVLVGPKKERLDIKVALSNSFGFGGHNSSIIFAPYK

[7] = system: synthase I; conditions: cited from earlier work
[8] = molecular target: T6, type-I synthase (Ricinus communis, UniProt Q41135); assay: biochemical; design: species or system R. communis
T6 construct: mature plastid protein
T6 sequence (Q41135 43-469): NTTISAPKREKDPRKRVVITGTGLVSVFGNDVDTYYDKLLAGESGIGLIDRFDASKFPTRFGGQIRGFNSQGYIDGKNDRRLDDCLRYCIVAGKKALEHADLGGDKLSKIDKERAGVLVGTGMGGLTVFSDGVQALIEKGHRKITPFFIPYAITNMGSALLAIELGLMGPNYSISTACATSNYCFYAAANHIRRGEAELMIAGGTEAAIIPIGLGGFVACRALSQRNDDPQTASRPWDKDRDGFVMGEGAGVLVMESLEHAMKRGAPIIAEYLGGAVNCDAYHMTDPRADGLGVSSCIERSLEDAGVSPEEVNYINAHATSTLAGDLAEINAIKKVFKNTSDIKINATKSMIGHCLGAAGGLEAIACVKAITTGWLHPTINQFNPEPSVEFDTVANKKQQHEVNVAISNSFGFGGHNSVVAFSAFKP

[9] = system: synthase II; assay: Cerulenin sensitivity of synthase II fraction from cellulose phosphate; assay type: biochemical, S. oleracea; conditions: 5 μM cerulenin, 15 minutes, room temperature
Protocol: as §1

[10] = cerulenin concentrations above 50 μM

C/C=C/C/C=C/CCC(=O)[C@H]1O[C@H]1C(N)=O [cerulenin]
reaction with active site of synthase II ([1]; 5 μM cerulenin): not synthase II | reaction with synthase II [1, 10]: react readily | inhibition at 5 µM [2]: 99% | sensitivity of synthase II to cerulenin [3]: less sensitive | sensitivity of synthase I to cerulenin [4]: most sensitive | sensitivity of synthase III to cerulenin [5]: least sensitive | sensitivity of activity with C16:0-ACP (type-II synthase) to cerulenin [6]: virtually insensitive | reaction with active site of synthase I ([7]; 5 μM cerulenin): reacts readily | reaction with synthase I [7, 10]: react readily | inactivation of type-I synthase [8]: completely inactivated | inhibition at 5 µM ([8]; read-out: inhibition of activity with C10:0-ACP): > 80% | inhibition of palmitoyl-ACP activity [9]: not inhibited | reduction of decanoyl-ACP activity [9]: 69%
